Converted amounts (≈) assume the structure as drawn.
Key:
Assay type in all cases: cell-based
[1] = tested on: Escherichia coli ATCC 10536; experiment: Serial broth microdilution with agar sub-cultivation
[2] = tested on: Enterococcus faecalis ATCC 29212; experiment: as above; details: ATCC29212, n.d. = not detected (0.18–11.36 mg/mL)
[3] = tested on: Klebsiella pneumoniae MFBF 10402; experiment: as above
[4] = tested on: Bacillus subtilis ATCC 6633; experiment: as above
[5] = tested on: Bacillus subtilis ATCC 6633; experiment: Well diffusion method; details: aerial parts extracts c = 50 mg/mL; antibiotics c = 0.2 mg/mL; n.d. = growth inhibition not detected
Protocol: (§1) Antibacterial activity was evaluated using the following strains: Bacillus cereus American Type Culture Collection (ATCC, Manassas, VA, USA) 11778, B. subtilis ATCC 6633, Enterococcus faecalis ATCC 29212, Staphylococcus aureus ATCC 6538 and S. aureus ATCC 29213 among Gram-positive and Escherichia coli ATCC 10536, Klebsiella pneumoniae MFBF 10402 and Pseudomonas aeruginosa ATCC 27853 among Gram-negative bacterial species. Additionally, eight clinical isolates of S. aureus, including methicillin-resistant S. aureus (MRSA MFB F101, MRSA MFBF 124, MRSA MFBF 154, MRSA MFBF 164, and MRSA MFBF 177) and methicillin susceptible S. aureus (S. aureus MFBF 505, S. aureus MFBF 10661 and S. aureus MFBF 10666) were used. Bacterial strains were sourced from the Collection of Microorganisms, Department of Microbiology, Faculty of Pharmacy and Biochemistry, University of Zagreb. Inoculums were prepared from overnight cultures that were cultured on tryptic soy agar (TSA) at 37 °C, suspended in sterile physiological saline, with the optic density adjusted to 0.5 McFarland (1.5 × 10^8 colony-forming units (CFUs)/mL) using a densitometer (Densimat, BioMérieux, Marcy-l’Étoile, France). Right before cultivation in nutrient medium, 1 mL of each prepared suspension was dissolved with 9 mL physiological saline. Prior to cell treatment, sample stock solutions in distilled water (c = 50 mg/mL) were filtered through Chromafil cellulose acetate filters of pore size 0.22 μm (Macherey-Nagel, Düren, Germany).
(§2) Well diffusion method was carried out according to the European Pharmacopoeia. Inoculums (100 μL) were transferred to individual petri dishes with 4 mm thick Müller–Hinton agar and equally distributed across agar surface with a glass L-stick. Wells were prepared using sterile stainless-steel cylinders (d = 6 mm) and filled with 50 μL of methanolic aerial parts extract solution (c = 50 mg/mL) in distilled water. Plates were incubated at 37 °C for 18 h in the dark. Diameters of the zones of inhibition of bacterial growth (mm) were read from the diameters of transparent zones around the wells. Gentamicin and norfloxacin (c = 0.2 mg/mL) were used as positive controls.

[6] = tested on: Klebsiella pneumoniae MFBF 10402; experiment: Well diffusion method; details: aerial parts extracts c = 50 mg/mL; antibiotics c = 0.2 mg/mL; n.d. = growth inhibition not detected
Protocol: as §1, §2

[7] = tested on: Enterococcus faecalis ATCC 29212; experiment: Well diffusion method; details: aerial parts extracts c = 50 mg/mL; antibiotics c = 0.2 mg/mL; n.d. = growth inhibition not detected
Protocol: as §1, §2

[8] = tested on: Staphylococcus aureus ATCC 6538; experiment: Well diffusion method; details: aerial parts extracts c = 50 mg/mL; antibiotics c = 0.2 mg/mL
Protocol: as §1, §2

[9] = tested on: Bacillus cereus ATCC 11778; experiment: Well diffusion method; details: aerial parts extracts c = 50 mg/mL; antibiotics c = 0.2 mg/mL; n.d. = growth inhibition not detected
Protocol: as §1, §2

[10] = tested on: Escherichia coli ATCC 10536; experiment: Well diffusion method; details: aerial parts extracts c = 50 mg/mL; antibiotics c = 0.2 mg/mL; n.d. = growth inhibition not detected
Protocol: as §1, §2

[11] = tested on: Pseudomonas aeruginosa ATCC 27853; experiment: Well diffusion method; details: aerial parts extracts c = 50 mg/mL; antibiotics c = 0.2 mg/mL; n.d. = growth inhibition not detected
Protocol: as §1, §2

[12] = tested on: Bacillus cereus ATCC 11778; experiment: Serial broth microdilution with agar sub-cultivation
[13] = tested on: Staphylococcus aureus ATCC 29213; experiment: as above
[14] = tested on: Staphylococcus aureus ATCC 6538; experiment: as above
[15] = tested on: Pseudomonas aeruginosa ATCC 27853; experiment: as above

MIC ([1]; ATCC10536, aerial parts extracts, TTC detection, n.d. = growth inhibition not detected (0.18–11.36 mg/mL)): 0.1 µg/mL (≈ 0.209 µM) | MIC ([3]; MFBF10402, aerial parts extracts, TTC detection, n.d. = growth inhibition not detected (0.18–11.36 mg/mL)): 0.3 µg/mL (≈ 0.628 µM) | MIC ([4]; ATCC6633, aerial parts extracts, TTC detection, n.d. = growth inhibition not detected (0.18–11.36 mg/mL)): < 0.1 µg/mL | MIC ([12]; ATCC11778, aerial parts extracts, TTC detection, n.d. = growth inhibition not detected (0.18–11.36 mg/mL)): 1.5 µg/mL (≈ 3.14 µM) | MIC ([13]; ATCC29213, aerial parts extracts, TTC detection): 0.3 µg/mL (≈ 0.628 µM) | MIC ([14]; ATCC6538, aerial parts extracts, TTC detection): 0.6 µg/mL (≈ 1.26 µM) | MIC ([15]; ATCC27853, aerial parts extracts, TTC detection, n.d. = growth inhibition not detected (0.36–22.73 mg/mL)): 1.1 µg/mL (≈ 2.3 µM)
SMILES: CNC(C)C1CCC(N)C(OC2C(N)CC(N)C(OC3OCC(C)(O)C(NC)C3O)C2O)O1 (stereo not shown) [Gentamicin, gentamicin]
MBC ([1]; ATCC10536, agar sub-cultivation, n.d. = not detected (0.18–11.36 mg/mL)): 1.5 µg/mL (≈ 3.14 µM) | MBC [2]: 4.6 µg/mL (≈ 9.63 µM) | MBC ([3]; MFBF10402, agar sub-cultivation, n.d. = not detected (0.18–11.36 mg/mL)): 0.8 µg/mL (≈ 1.68 µM) | MBC ([4]; ATCC6633, agar sub-cultivation, n.d. = not detected (0.18–11.36 mg/mL)): 0.2 µg/mL (≈ 0.419 µM) | growth inhibition zone [5]: 24.7 ± 0.6 mm | growth inhibition zone [6]: 21.0 ± 0.0 mm | growth inhibition zone [7]: 15.0 ± 0.0 mm | growth inhibition zone [8]: 24.0 ± 0.0 mm | growth inhibition zone [9]: 22.3 ± 0.6 mm | growth inhibition zone [10]: 23.3 ± 0.6 mm | growth inhibition zone [11]: 24.3 ± 0.6 mm | MBC ([12]; ATCC11778, agar sub-cultivation, n.d. = not detected (0.18–11.36 mg/mL)): 1.5 µg/mL (≈ 3.14 µM) | MBC ([13]; ATCC29213, agar sub-cultivation): 0.7 µg/mL (≈ 1.47 µM) | MBC ([14]; ATCC6538, agar sub-cultivation, n.d. = not detected): 0.8 µg/mL (≈ 1.68 µM) | MBC ([15]; ATCC27853, agar sub-cultivation, n.d. = not detected (0.36–22.73 mg/mL)): 3 µg/mL (≈ 6.28 µM)

From publication PMC9146695, “Globularia alypum L. and Related Species: LC-MS Profiles and Antidiabetic, Antioxidant, Anti-Inflammatory, Antibacterial and Anticancer Potential” (Pharmaceuticals, 2022)
